Entries after “also recorded” stand apart in the source; their conditions may differ.
Tested on: NO2-/NO3- levels in MCF-7 cells
Experiment: Nitrite and nitrate measurements by chemiluminescence (NO analyzer)
Type: cell-based
Details: with simvastatin or fluvastatin (10 μM), 40 h; mevalonate 20 μM, 1400 W 10 μM, sepiapterin 50 μM; compared to statin alone
Method: Briefly, following treatments, cells were washed three times with DPBS after aspirating the medium. To this, 1 ml of Hanks' balanced salt mixture containing 25 μM L-arginine was added and incubated for 30 min at 37° C. The medium was collected and centrifuged for 5 min at 5000 rpm, and 50 μl of the clear supernatant was used for nitrate and nitrite analysis. Each sample was analyzed in triplicate.

CC(O)(CCO)CC(=O)O (stereo not shown) [mevalonate]
effect on statin-induced NO / NO2-/NO3- levels: inhibited; also recorded: suppressed

Reference: patent publication US20070219208A1, “Methods for Treating Cancer” (priority 2006, published 2007)
